The term Ki denotes a dissociation constant, usually derived from enzyme kinetics or from competition with a known ligand. As usually defined, the EC50 is the concentration at which the effect is half-maximal.

Read-outs that look alike come from different tables or passages of the source. Where only a bound is given, the exact number is not on record here.

These results are taken from US9139546B2, “Tri-aryl/heteroaromatic cannabinoids and use thereof” (priority 2007, dated 2015).

One assay deals with human CB1 receptor (Homo sapiens (Human), UniProt P21554). Briefly: Receptor binding assay, CB1 ([3H]CP 55,940 displacement). The conditions noted are these: as repeated in the anti-inflammatory table; read-out: CB-1 Ki. The protocol: (§1) The assays were carried out in 96 well plates obtained from Millipore, Inc. fitted with glass fiber filters (hydrophilic, GFC filters) having a pore size of 1.2μ. The filters were soaked with 0.05% polyethyleneimine solution and washed 5× with deionized water prior to carrying out the assays. The filtrations were carried out on a 96 well vacuum manifold (Millipore Inc.), the filters punched out with a pipette tip directly into scintillation vials at the end of the experiment and vials filled with 5 ml scintillation cocktail Ecolite (+) (Fisher Scientific). Counting was carried out on a Beckmann Scintillation Counter model LS6500. Drug solutions were prepared in DMSO and the radioligand was dissolved in ethanol.
(§2) 50 mM TRIS-HCl, 5 mM MgCl2, 2.5 mM EDTA, 0.5 mg/ml fatty acid free bovine serum albumin, pH 7.4.
(§3) The membranes were filtered and the filters washed 7× with 0.2 ml ice-cold incubation buffer and allowed to air dry under vacuum.
(§4) Final data are presented as Ki±S.E.M. of n≧3 experiments.

Another assay has as its target human CB2 receptor (Homo sapiens (Human), UniProt P34972). Briefly: Receptor binding assay, CB2 ([3H]CP 55,940 displacement). Particulars: for Ki: as repeated in the anti-inflammatory table, read-out: CB-2 Ki; for CB1/CB2: ratio of Ki CB-1 to Ki CB-2. The protocol:
as §1, §2, §3, §4

In the next assay the test system is NF-κB. Briefly: NF-κB SEAP reporter assay in TNF-α treated A549 cells. The conditions noted are these: Homo sapiens, read-out: NF-κB Reduction; for inhibition at 0.1 µM: A549, 18 h. In kind it is cell-based. How it is done: (§5) Human lung adenocarcinoma cell line A549 (alveolar type II epithelial-like) cells (ATCC, Manassas, Va.) were maintained in growth media consisting of DMEM supplemented with 10% heat-inactivated fetal calf serum, 2 mM L-glutamine, 100 U/ml penicillin, and 100 μg/ml streptomycin.
The plasmid pNF-κB-SEAP-NPT was kindly provided by Dr. Y. S. Kim of the Seoul National University. This plasmid contains a secreted alkaline phosphatase (SEAP) reporter gene coupled with the κB response element. Upon activation, NF-κB translocates to the nucleus and binds to the κB response element causing transcriptional activation. This activation drives production of the SEAP reporter, which is secreted into the cell culture supernatant where it can be measured. The neomycin phosphotransferase (NPT) region of the plasmid provides resistance to the antibiotic G-418.
A549 cells were stably transfected with pNF-κB-SEAP-NPT using GeneJammer Transfection Reagent (Stratagene, La Jolla, Calif.) per manufacturer's protocol. G-418 (500 μg/ml) was added 24 hrs after transfection to select for stable transfection of NF-κB. Resistant colonies were selected and maintained in growth media supplemented with 500 μg/ml G-418.
Previous experiments have shown A549 cells respond to the pro-inflammatory cytokine TNF-α by activation of the pro-inflammatory transcription factor, NF-κB. This effect is dose dependent with the maximum effect seen at 10 ng/mL TNF-α. Compounds with anti-inflammatory activity can be used to inhibit this activation of NF-κB.
One day prior to treatment, transfected cells were seeded in 24 well culture plates at 6×10^4 cells/well in 1 mL of DMEM containing 1% FCS. On the day of treatment, media was aspirated. Following PBS wash, 1 mL of media containing 1% FCS, 10 ng/mL TNF-α, and varying concentrations of test compounds was added. Cell culture supernatant was collected at 18 hours. SEAP production was measured in 50 μL of supernatant using the Great EscAPe™ chemiluminescence kit (Clontech, Mountain View, Calif.). Briefly, samples were incubated at 65° C. for 30 minutes to inactivate endogenous alkaline phosphate. Following a 5-minute equilibration with assay buffer, chemiluminescent substrate and enhancer was added. Chemiluminescence was measured after 10 minutes. Higher levels of chemiluminescence result from increased SEAP production and correspond to NF-κB activity. Compounds capable of inhibiting NF-κB activation due to TNF-α are determined by a reduction in chemiluminescence values when cells are treated with TNF-α and test compound versus cells treated with TNF-α alone.
On the technique in general: A reporter such as luciferase makes a cellular process visible.

For a further assay, the system named is CXCL-8. Briefly: CXCL-8 level in supernatant of TNF-α treated A549 cells (multiplex bead immunoassay). The conditions noted are these: A549, 10 ng/mL TNF-α, 18 hours. The assay is classed as cell-based, human. The protocol: as §5
(§6) One day prior to treatment, A549 cells were seeded in 24 well culture plates at 6×10^4 cells/well in 1 mL of DMEM containing 1% FCS. On the day of treatment, media was aspirated. Following PBS wash, 1 mL of media containing 1% FCS, 10 ng/mL TNF-α, and varying concentrations of test compounds was added. Samples were collected at 18 hours and immediately transferred to −80° C. until the day of analysis.
(§7) Levels of IL-6 and CXCL-8 were measured in cell culture supernatant using the Multiplex Bead Immunoassay Kit (Biosource, Camarillo, Calif.) paired with the Luminex® 200™ System. Standard solutions were prepared by serial dilution in a 50% media, 50% buffer solution so that they were in the same matrix as the samples. Standards and samples were mixed with a solution containing beads coated with capture antibodies specific for IL-6 and CXCL-8. Each capture antibody is bound to a specific bead population with a known internal fluorescence. The Luminex system can differentiate between internal fluorescence of beads allowing detection of multiple analytes in the same well. Following overnight incubation to allow complexation of protein with capture antibodies, wells were washed and beads resuspended in assay buffer. Biotinylated reporter antibodies specific for IL-6 and CXCL-8 were added and incubated for 1.5 hours. Unbound antibodies were removed by washing, and Streptavidin-Phycoerythrin (PE) was added and incubated 30 minutes. Streptavidin binds to biotin on the reporter antibodies. Unbound reagents were removed and samples were analyzed by the Luminex system. This system utilizes a flow cytometry system and lasers capable of exciting the internal dyes of the beads and PE. The machine separates signals from beads with different internal fluorescence and measures fluorescence intensity from PE bound to these beads through protein-antibody interactions. This fluorescence intensity is reported as the median of 100 beads per cytokine in each well. Concentrations were interpolated by fitting fluorescence intensity from unknowns to the standard curves.
(§8) Cells treated with the pro-inflammatory cytokine TNF-α increase production of IL-6 and CXCL-8 when compared to cells not treated with TNF-α. Cells treated with anti-inflammatory compounds block the inflammatory effect of TNF-α and produce IL-6 and CXCL-8 levels similar to cells that are not treated with TNF-α.

The next assay deals with CCL-2. The experiment in a line: CCL-2 reduction in TNF-α treated A549 cells. The assay is classed as cell-based, human. Particulars: A549, 10 ng/mL TNF-α.
For a further assay, the system named is IL-6. Briefly: IL-6 level in supernatant of TNF-α treated A549 cells (multiplex bead immunoassay). The conditions noted are these: A549, 10 ng/mL TNF-α, 18 hours. In kind it is cell-based, human. The protocol:
as §5, §6, §7, §8

Assay [1] has as its system DU-145 prostate cancer cells. Briefly: Anti-cancer activity, WST-8 cell viability, DU-145. The assay is classed as cell-based. The conditions noted are these: Homo sapiens. The protocol:
(§9) A representative group of compounds (shown below) was tested for anti-cancer activity against human lung (DMS-135 and H69AR), prostate (DU-145), colorectal (HCT-15), and pancreatic (BxPC-3) cancer cell lines using the methodology described below, providing results shown in Table 3.
(§10) Human cancer cells DU-145, DMS-135, H69AR, HCT-15, and BxPC-3 (American Type Culture Collection, ATCC) were cultured in supplemented media according to the recommendations of the supplier. Cells lines were plated in 96-well flat-bottom plates at 70% confluency in a 100 μl total volume of supplemented media as indicated, and incubated overnight at 37° C. to allow for adherence. The cultures were inoculated with escalating amounts of drug and cell death was analyzed at 18 hours, using the BioTek Synergy 2 Multidetection Microplate Reader. The percentage of viable cells present in the culture at each time point was calculated by comparing the absorbance value at 450 nm from the WST-8 assay (Pojindo Molecular Technologies) for each condition with untreated control cells.

Assay [2] deals with DMS-135 lung cancer cells. Briefly: Anti-cancer activity, WST-8 cell viability, DMS-135. The assay is classed as cell-based. Particulars: Homo sapiens. How it is done: as §9, §10
For orientation: Formazan colour is commonly taken as a measure of viable cells.

For the next assay, the system named is H69AR lung cancer cells. The experiment in a line: Anti-cancer activity, WST-8 cell viability, H69AR. The assay is classed as cell-based. The conditions noted are these: Homo sapiens. How it is done: as §9, §10
In assay [3] the test system is HCT-15 colorectal cancer cells. The experiment in a line: Anti-cancer activity, WST-8 cell viability, HCT-15. The assay is classed as cell-based. Particulars: Homo sapiens. The protocol: as §9, §10
Assay [4] concerns BxPC-3 pancreatic cancer cells. The experiment in a line: Anti-cancer activity, WST-8 cell viability, BxPC-3. The assay is classed as cell-based. The conditions noted are these: Homo sapiens. The protocol: as §9, §10

Chain of human CB1 receptor (P21554 whole entry): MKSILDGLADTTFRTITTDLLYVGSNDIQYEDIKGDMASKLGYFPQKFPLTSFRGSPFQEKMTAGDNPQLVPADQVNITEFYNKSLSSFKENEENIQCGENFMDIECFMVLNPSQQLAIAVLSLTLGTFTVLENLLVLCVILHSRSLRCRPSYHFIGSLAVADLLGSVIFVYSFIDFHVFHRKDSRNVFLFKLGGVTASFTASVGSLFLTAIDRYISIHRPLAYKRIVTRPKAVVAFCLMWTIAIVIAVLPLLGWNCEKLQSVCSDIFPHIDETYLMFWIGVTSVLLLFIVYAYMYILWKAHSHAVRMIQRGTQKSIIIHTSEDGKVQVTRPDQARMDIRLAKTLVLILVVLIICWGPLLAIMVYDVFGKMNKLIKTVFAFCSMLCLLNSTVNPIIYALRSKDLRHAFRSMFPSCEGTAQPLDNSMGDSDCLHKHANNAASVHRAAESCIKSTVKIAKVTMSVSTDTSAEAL

Consider `COc1cc(C(=O)c2ccccc2)cc(O)c1-c1cccc(C)c1` [Compound 27, (2-Hydroxy-6-methoxy-3′-methyl-biphenyl-4-yl)-phenyl-methanone], for which the Ki at human CB1 receptor is above 1000 nM; on human CB2 receptor, 225 nM. Besides, the CB1/CB2 at human CB2 receptor amounted to 4.44. Moreover, in the assay with NF-κB (1 nM compound, A549, 10 ng/mL TNF-α, 18 hours), the inhibition at 0.001 µM stood at 45%. Also, in the assay with NF-κB (10 nM compound, A549, 10 ng/mL TNF-α, 18 hours), the inhibition at 0.01 µM stood at 38 ± 10%. For the same compound, the “CXCL-8 Reduction” value amounted to 50% with CXCL-8 (1 nM compound) and 27 ± 15% in the assay on CXCL-8 (10 nM compound). In the assay on CCL-2 (10 nM compound), the “CCL-2 Reduction” value was 32 ± 9%.

`COc1cc(C(=O)c2ccccc2)cc(O)c1-c1cc(Cl)cc(Cl)c1` [Compound 29, (3′,5′-dichloro-2-hydroxy-6-methoxybiphenyl-4-yl)(phenyl)methanone]: the inhibitory constant (Ki) on human CB1 receptor is above 1000 nM; on human CB2 receptor, 4.77 nM. For the same compound, the CB1/CB2 at human CB2 receptor was 209. The inhibition at 0.1 µM in the assay on NF-κB was 50%. For the same compound, the “IL-6 Reduction” value in the assay with IL-6 (100 nM compound) was below 5%. The “CXCL-8 Reduction” value in the assay with CXCL-8 (100 nM compound) is on record as below 10%. Besides, the EC50 in assay [1] (DU-145, 18 h, read-out: DU-145 prostate EC50 (μM)) was 1.5 µM; in assay [2] (18 h, read-out: DMS-135 lung EC50 (μM)) it was 2.8 µM; with H69AR lung cancer cells (18 h, read-out: H69AR lung EC50 (μM)), 1.3 µM; in [3] (HCT-15, 18 h, read-out: HCT-15 colorectal EC50 (μM)) it was 2.9 µM; in [4] (BXPC-3, 18 h, read-out: BxPC-3 pancreatic EC50 (μM)), 9.3 µM.

On to `O=C(c1ccccc1)c1cc(O)c(-c2cc(Cl)cc(Cl)c2)c(O)c1` [Compound 28, (3′,5′-dichloro-2,6-dihydroxybiphenyl-4-yl)(phenyl)methanone], for which the Ki is 27 nM at human CB1 receptor and 2.94 nM on human CB2 receptor. Moreover, the CB1/CB2 at human CB2 receptor is reported as 9.18. For the same compound, in the assay with NF-κB (1 μM compound, A549, 10 ng/mL TNF-α, 18 hours), the inhibition at 1 µM came to 35%. Also, in the assay on IL-6 (1 μM compound), the “IL-6 Reduction” value was found to be 15%. The “CXCL-8 Reduction” value in the assay on CXCL-8 (1 μM compound) is recorded as 5%. Moreover, the concentration giving a half-maximal response (EC50) in [1] (DU-145, cell death at 18 hours, WST-8, n.a. = no activity, read-out: DU-145 prostate EC50) is 5.4 µM; in [2] (cell death at 18 hours, WST-8, n.a. = no activity, read-out: DMS-135 lung EC50), 11.8 µM; with H69AR lung cancer cells (cell death at 18 hours, WST-8, n.a. = no activity, read-out: H69AR lung EC50), 2.4 µM; in assay [3] (HCT-15, cell death at 18 hours, WST-8, n.a. = no activity, read-out: HCT-15 colorectal EC50) it was 0.8 µM; in [4] (BXPC-3, cell death at 18 hours, WST-8, n.a. = no activity, read-out: BxPC-3 pancreatic EC50), 4 µM.

Turning to `Cc1cccc(-c2c(O)cc(C(=O)c3ccccc3)cc2O)c1` [Compound 26, (2,6-Dihydroxy-3′-methyl-biphenyl-4-yl)-phenyl-methanone], on human CB1 receptor, the inhibition constant (Ki) was 983 nM. Besides, on human CB2 receptor, the Ki was 159 ± 2.92 nM and the CB1/CB2 was 6.18. In addition, the inhibition at 0.1 µM in the assay on NF-κB came to 67 ± 9%. Also, the “CXCL-8 Reduction” value in the assay with CXCL-8 (100 nM compound) worked out at 59 ± 5%. The “CCL-2 Reduction” value in the assay with CCL-2 (100 nM compound) worked out at 61 ± 19%.
